In the test the test system is insulin resistant rats. In words: Euglycemic insulin clamp in High Fat Diet fed insulin resistant rats after a single oral dose. It counts as in vivo, Male Wistar rats. The settings on record: for EGP (endogenous glucose production) / GIR (glucose infusion rate) / GU (glucose utilization): 4 hrs before clamp, mean ± sem. On the procedure: Male Wistar rats were fed a High Fat Diet for at least 4 weeks. Jugular vein and carotid artery cannulations were performed one week prior to the clamp experiment. Test compound (Compound 15) is administered p.o. 4 hrs before the clamp and labeled 3-3H-glucose is infused 1 hr prior to calculated endogenous glucose production (EGP). Insulin is infused at a rate of 0.75 U/kg/hr raising plasma insulin levels to […]. To maintain euglycemia (80 mg/dl), unlabeled glucose is infused at a variable rate and adjusted every 10 minutes.

As for `CCc1ccc(-c2sc(NC(=O)c3ccc(S(=O)(=O)N[C@@H](Cc4ccccc4)C(=O)O)cc3)nc2-c2ccc(Cl)cc2)cc1` [Compound 15, N-{[4-({[4-(4-chlorophenyl)-5-(4-ethylphenyl)-1,3-thiazol-2-yl]amino}carbonyl)phenyl]sulfonyl}phenylalanine], where the note is “10 mg/kg single oral dose”, the “EGP (endogenous glucose production)” value is 1.4 ± 1.8 mg/kg/min, the “GIR (glucose infusion rate)” value is on record as 29.6 ± 5.0 mg/kg/min and the “GU (glucose utilization)” value is 28.3 ± 6.6 mg/kg/min. Moreover, where the note is “30 mg/kg p.o., result in words”, the “effect on endogenous glucose production (EGP)” value is listed as “enhanced suppression”, the “effect on glucose infusion rate (GIR)” value was “significantly increased” and the “effect on glucose utilization (GU)” value is “augmented stimulation”. Besides, where the note is “30 mg/kg single oral dose”, the “EGP (endogenous glucose production)” value amounted to 0.16 ± 0.5 mg/kg/min, the “GIR (glucose infusion rate)” value was 30.8 ± 2.2 mg/kg/min and the “GU (glucose utilization)” value is on record as 30.7 ± 2.00 mg/kg/min. Further, under “60 mg/kg single oral dose”, the “EGP (endogenous glucose production)” value was found to be 0.77 ± 0.4 mg/kg/min, the “GIR (glucose infusion rate)” value is 38.0 ± 2.2 mg/kg/min and the “GU (glucose utilization)” value was found to be 37.3 ± 2.3 mg/kg/min.
